pKi: −log10 of the molar value.

Broadly, the pKi is the Ki on a negative log10 scale, so that one unit is a factor of ten. For orientation: inhibition means how much of the control response was suppressed.

Test [1] has as its target Recombinant human soluble BACE1 catalytic domain (Homo sapiens (Human), UniProt P56817). Briefly: BACE1 HTRF FRET Assay. As to conditions: for pKi: Ki calculated from IC50 using the Cheng-Prusoff equation, QSY7-APPswe-Eu substrate, pH 5.0, read-out: BACE-1 Ki. In kind it is biochemical. From the text:
Reagents: Na^+-Acetate pH 5.0; 1% Brij-35; Glycerol; Dimethyl Sulfoxide (DMSO); Recombinant human soluble BACE1 catalytic domain (>95% pure); APP Swedish mutant peptide substrate (QSY7-APP^swe-Eu): QSY7-EISEVNLDAEFC-Europium-amide.
A homogeneous time-resolved FRET assay can be used to determine IC50 values for inhibitors of the soluble human BACE1 catalytic domain. This assay monitors the increase of 620 nm fluorescence that resulted from BACE1 cleavage of an APPswedish APP^swe mutant peptide FRET substrate (QSY7-EISEVNLDAEFC-Europium-amide). This substrate contains an N-terminal QSY7 moiety that serves as a quencher of the C-terminal Europium fluorophore (620 nm Em). In the absence of enzyme activity, 620 nm fluorescence is low in the assay and increased linearly over 3 hours in the presence of uninhibited BACE1 enzyme. Inhibition of BACE1 cleavage of the QSY7-APP^swe-Eu substrate by inhibitors is manifested as a suppression of 620 nm fluorescence.
Varying concentrations of inhibitors at 3× the final desired concentration in a volume of 10 ul are preincubated with purified human BACE1 catalytic domain (3 nM in 10 μl) for 30 minutes at 30° C. in reaction buffer containing 20 mM Na-Acetate pH 5.0, 10% glycerol, 0.1% Brij-35 and 7.5% DSMO. Reactions are initiated by addition of 10 μl of 600 nM QSY7-APP^swe-Eu substrate (200 nM final) to give a final reaction volume of 30 μl in a 384 well Nunc HTRF plate. The reactions are incubated at 30° C. for 1.5 hours. The 620 nm fluorescence is then read on a Rubystar HTRF plate reader (BMG Labtechnologies) using a 50 millisecond delay followed by a 400 millisecond acquisition time window. Inhibitor IC50 values are derived from non-linear regression analysis of concentration response curves. Ki values are then calculated from IC50 values using the Cheng-Prusoff equation using a previously determined […] of 8 μM for the QSY7-APP^swe-Eu substrate at BACE1.

Test [2] deals with purified human autoBACE-2 (Homo sapiens (Human), UniProt Q9Y5Z0). Briefly: BACE-2 Assay (BACE-HTRF assay). As to conditions: Ki calculated from IC50 using the Cheng-Prusoff equation; QSY7-EISEVNLDAEFC-Eu-amide substrate, pH 5.0. In kind it is biochemical. As for the experimental part: Inhibitor IC50s at purified human autoBACE-2 are determined in a time-resolved endpoint proteolysis assay that measures hydrolysis of the QSY7-EISEVNLDAEFC-Eu-amide FRET peptide substrate (BACE-HTRF assay). BACE-mediated hydrolysis of this peptide results in an increase in relative fluorescence (RFU) at 620 nm after excitation with 320 nm light. Inhibitor compounds, prepared at 3× the desired final concentration in 1×BACE assay buffer (20 mM sodium acetate pH 5.0, 10% glycerol, 0.1% Brij-35) supplemented with 7.5% DMSO are preincubated with an equal volume of autoBACE-2 enzyme diluted in 1×BACE assay buffer (final enzyme concentration 1 nM) in black 384-well NUNC plates for 30 minutes at 30° C. […] DMSO is present at 5% final concentration in the assay. Following laser excitation of sample wells at 320 nm, the fluorescence signal at 620 nm is collected for 400 ms following a 50 μs delay on a RUBYstar HTRF plate reader (BMG Labtechnologies). Raw RFU data is normalized to maximum (1.0 nM BACE/DMSO) and minimum (no enzyme/DMSO) RFU values. IC50s are determined by nonlinear regression analysis (sigmoidal dose response, variable slope) of percent inhibition data with minimum and maximum values set to 0 and 100 percent respectively. Similar IC50s are obtained when using raw RFU data. The Ki values are calculated from the IC50 using the Cheng-Prusoff equation.
purified human autoBACE-2, sequence (Q9Y5Z0 63-518): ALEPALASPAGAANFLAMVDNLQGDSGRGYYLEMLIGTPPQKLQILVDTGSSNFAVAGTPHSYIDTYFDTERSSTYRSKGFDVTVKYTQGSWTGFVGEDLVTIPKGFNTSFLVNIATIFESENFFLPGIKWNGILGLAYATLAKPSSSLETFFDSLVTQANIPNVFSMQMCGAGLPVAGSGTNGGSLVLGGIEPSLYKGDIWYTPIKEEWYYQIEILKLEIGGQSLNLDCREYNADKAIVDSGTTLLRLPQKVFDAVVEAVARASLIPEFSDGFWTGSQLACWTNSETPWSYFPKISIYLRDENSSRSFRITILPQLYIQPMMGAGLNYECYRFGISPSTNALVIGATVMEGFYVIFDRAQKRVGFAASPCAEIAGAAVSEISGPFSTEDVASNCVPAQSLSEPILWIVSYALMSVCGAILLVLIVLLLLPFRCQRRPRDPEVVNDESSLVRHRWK

Recombinant human soluble BACE1 catalytic domain, sequence (P56817 75-416): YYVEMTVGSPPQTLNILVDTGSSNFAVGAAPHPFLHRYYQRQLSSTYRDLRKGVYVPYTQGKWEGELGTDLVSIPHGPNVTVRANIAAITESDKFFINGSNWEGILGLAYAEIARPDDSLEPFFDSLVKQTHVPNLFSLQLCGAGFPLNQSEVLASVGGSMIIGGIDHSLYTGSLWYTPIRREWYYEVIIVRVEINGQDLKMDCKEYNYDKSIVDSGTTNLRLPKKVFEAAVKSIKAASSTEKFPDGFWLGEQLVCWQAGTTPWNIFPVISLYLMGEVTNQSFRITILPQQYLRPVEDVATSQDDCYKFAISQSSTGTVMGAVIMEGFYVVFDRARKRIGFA

For `C[C@H]1C[C@@H]2[C@](c3cc(Oc4cc(C#N)ccn4)ccc3F)(CO1)NC(=N)C(C)(C)S2(=O)=O` [Example 6, 2-(4-fluoro-3-((4aS,7S,8aR)-3-imino-2,2,7-trimethyl-1,1-dioxidooctahydropyrano[4,3-b][1,4]thiazin-4a-yl)phenoxy)isonicotinonitrile], the figures for the pKi in test [1] and in test [2] were 7.63 and 7.72, respectively.
For `COc1ccc(F)c([C@]23CO[C@H](C)C[C@H]2S(=O)(=O)C(C)(C)C(=N)N3)c1` [Example 11, (4aS,7R,8aR)-4a-(2-fluoro-5-methoxyphenyl)-3-imino-2,2,7-trimethyloctahydropyrano[4,3-b][1,4]thiazine 1,1-dioxide], the inhibition at 10 µM in test [1] (@10 μM, read-out: BACE-1 inhibition (printed in BACE-1 Ki column)) was 27%. Also, in test [2], the negative logarithm of the Ki (pKi) is 5.08.
As for `C[C@H]1C[C@@H]2[C@](c3ccccc3F)(CO1)NC(=N)C(C)(C)S2(=O)=O` [Example 1, (4aS,7S,8aR)-4a-(2-fluorophenyl)-3-imino-2,2,7-trimethyloctahydropyrano[4,3-b][1,4]thiazine 1,1-dioxide], the negative logarithm of the Ki (pKi) was 6.44 in test [1] and 7.14 in test [2].
Turning to `CC1(C)C[C@@H]2[C@](c3cc(Oc4cc(F)cnc4F)ccc3F)(CO1)NC(=N)C(C)(C)S2(=O)=O` [Example 21, (4aS,8aR)-4a-{5-[(2,5-difluoropyridin-3-yl)oxy]-2-fluorophenyl}-2,2,7,7-tetramethyltetrahydro-2H,5H-pyrano[4,3-b][1,4]thiazin-3(4H)-imine 1,1-dioxide], the negative logarithm of the Ki (pKi) in test [1] is 8.01; in test [2] it was 7.06.
On the same counts, the results for `C[C@H]1C[C@@H]2[C@](c3cc(OCC4CC4)ccc3F)(CO1)NC(=N)C(C)(C)S2(=O)=O` [Example 9, (4aS,7S,8aR)-4a-(5-(cyclopropylmethoxy)-2-fluorophenyl)-3-imino-2,2,7-trimethyloctahydropyrano[4,3-b][1,4]thiazine 1,1-dioxide] are 7.03 and 7.94.

Source of the values: patent US10689401B2, “C5-C6-oxacyclic fused iminothiazine dioxide compounds bearing an ether linker as BACE inhibitors, compositions, and their use” (Merck Sharp & Dohme Corp., priority 2016, dated 2020).
